Data reported in ChEMBL document CHEMBL1201862, “PubChem BioAssay data set” (2004).
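These data come from cells grown in 96-well plates and exposed to compound for 48 hours at five concentrations. Here, GI50 denotes the concentration required for 50% inhibition of growth.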 The source made the active and inactive calls. Rule as the data show it: active = GI50 up to about 1.1 µM and inactive = higher.

How the values were obtained:
Test in all cases: DTP human tumour cell line panel, 48 h
786-0 = test system: 786-0
A498 = test system: A498
A549 = test system: A549
ACHN = test system: ACHN
BT-549 = test system: BT-549
CAKI-1 = test system: CAKI-1
COLO 205 = test system: COLO 205
DU-145 = test system: DU-145
EKVX = test system: EKVX
HCT-116 = test system: HCT-116
HCT-15 = test system: HCT-15
HOP-62 = test system: HOP-62
HOP-92 = test system: HOP-92
HT-29 = test system: HT-29
Hs-578T = test system: Hs-578T
IGROV-1 = test system: IGROV-1
K562 = test system: K562
KM12 = test system: KM12
LOX IMVI = test system: LOX IMVI
M14 = test system: M14
MCF7 = test system: MCF7
MDA-MB-231 = test system: MDA-MB-231
MDA-MB-435 = test system: MDA-MB-435
MDA-N = test system: MDA-N
Malme-3M = test system: Malme-3M
NCI-H226 = test system: NCI-H226
NCI-H23 = test system: NCI-H23
NCI-H460 = test system: NCI-H460
NCI-H522 = test system: NCI-H522
NCI/ADR-RES = test system: NCI/ADR-RES
OVCAR-3 = test system: OVCAR-3
OVCAR-4 = test system: OVCAR-4
OVCAR-5 = test system: OVCAR-5
OVCAR-8 = test system: OVCAR-8
PC-3 = test system: PC-3
RPMI-8226 = test system: RPMI-8226
RXF 393 = test system: RXF 393
SF-268 = test system: SF-268
SF-295 = test system: SF-295
SF-539 = test system: SF-539
SK-MEL-28 = test system: SK-MEL-28
SK-MEL-2 = test system: SK-MEL-2
SK-MEL-5 = test system: SK-MEL-5
SK-OV-3 = test system: SK-OV-3
SN12C = test system: SN12C
SNB-19 = test system: SNB-19
SR = test system: SR
SW-620 = test system: SW-620
T47D = test system: T47D
TK-10 = test system: TK-10
U-251 = test system: U-251
UACC-257 = test system: UACC-257
UACC-62 = test system: UACC-62
UO-31 = test system: UO-31
CCRF-CEM = test system: CCRF-CEM
HCC 2998 = test system: HCC 2998
HL-60 = test system: HL-60
MOLT-4 = test system: MOLT-4
SNB-75 = test system: SNB-75

Measured: GI50

CN(C)CCCNc1cc(O)c2c(c1O)C(=O)c1ccccc1C2=O
5.26 µM: HCT-15
inactive: 786-0 7.67 µM | A498 19.5 µM | A549 10.9 µM | ACHN 12.9 µM | BT-549 17 µM | CAKI-1 13 µM | COLO 205 11.5 µM | DU-145 14.8 µM | EKVX 15 µM | HCT-116 4.9 µM | HOP-62 11.1 µM | HOP-92 12.3 µM | HT-29 11 µM | Hs-578T 29.2 µM | IGROV-1 10.6 µM | K562 2.79 µM | KM12 9.4 µM | LOX IMVI 9.53 µM | M14 5.38 µM | MCF7 11.6 µM | MDA-MB-231 12.6 µM | MDA-MB-435 15.5 µM | MDA-N 14.3 µM | Malme-3M 31.3 µM | NCI-H226 18.2 µM | NCI-H23 13.3 µM | NCI-H460 6.46 µM | NCI-H522 21.8 µM | NCI/ADR-RES 3.4 µM | OVCAR-3 11.3 µM | OVCAR-4 12.1 µM | OVCAR-5 18.9 µM | OVCAR-8 12.6 µM | PC-3 13.8 µM | RPMI-8226 12.9 µM | RXF 393 4.59 µM | SF-268 16.8 µM | SF-295 13.1 µM | SF-539 12.1 µM | SK-MEL-28 16.4 µM | SK-MEL-2 19.8 µM | SK-MEL-5 13.2 µM | SK-OV-3 12.2 µM | SN12C 3.48 µM | SNB-19 6.9 µM | SR 3.01 µM | SW-620 8.65 µM | T47D 19 µM | TK-10 10.2 µM | U-251 13.2 µM | UACC-257 13.6 µM | UACC-62 18.4 µM | UO-31 1.69 µM

CN(/N=C/c1ccc(Cl)c(Cl)c1)C1=NCCCCN1
26.2 µM: HCT-15
inactive: 786-0 20.6 µM | A498 18.2 µM | A549 62.4 µM | ACHN 44.6 µM | BT-549 31 µM | CAKI-1 23.9 µM | CCRF-CEM 31 µM | COLO 205 16.7 µM | DU-145 91.2 µM | EKVX > 100 µM | HCC 2998 24.9 µM | HCT-116 24.4 µM | HL-60 19.3 µM | HOP-62 16.7 µM | HOP-92 18.9 µM | HT-29 29.2 µM | Hs-578T 61 µM | IGROV-1 52.6 µM | K562 21.4 µM | KM12 19.6 µM | LOX IMVI 13.2 µM | M14 15.4 µM | MCF7 19.8 µM | MDA-MB-231 32 µM | MDA-MB-435 16.3 µM | MDA-N 19.9 µM | MOLT-4 21.8 µM | Malme-3M 17.8 µM | NCI-H226 2.45 µM | NCI-H23 55.5 µM | NCI-H460 42.5 µM | NCI-H522 17.8 µM | NCI/ADR-RES 66.8 µM | OVCAR-3 41.6 µM | OVCAR-4 44.1 µM | OVCAR-5 27.9 µM | OVCAR-8 72.3 µM | PC-3 25.3 µM | RPMI-8226 27.9 µM | SF-268 51.2 µM | SF-295 34.4 µM | SF-539 29.3 µM | SK-MEL-2 20.1 µM | SK-MEL-5 14.6 µM | SK-OV-3 53.3 µM | SN12C 42 µM | SNB-19 45.4 µM | SNB-75 50.2 µM | SR 41.3 µM | SW-620 15.6 µM | T47D 16.6 µM | TK-10 69.8 µM | U-251 26.6 µM | UACC-257 22.6 µM | UACC-62 23 µM

CCOC(=O)C1CCCC1S(=O)(=O)c1ccc(C)cc1 (stereo unspecified)
inactive: 786-0 > 100 µM | A498 45.3 µM | A549 > 100 µM | ACHN > 100 µM | BT-549 > 100 µM | CAKI-1 > 100 µM | CCRF-CEM > 100 µM | COLO 205 > 100 µM | DU-145 > 100 µM | EKVX > 100 µM | HCC 2998 > 100 µM | HCT-116 > 100 µM | HL-60 > 100 µM | HOP-62 > 100 µM | HOP-92 > 100 µM | HT-29 > 100 µM | Hs-578T > 100 µM | IGROV-1 > 100 µM | K562 > 100 µM | KM12 > 100 µM | LOX IMVI > 100 µM | M14 > 100 µM | MCF7 > 100 µM | MDA-MB-231 > 100 µM | MDA-MB-435 79.4 µM | MDA-N > 100 µM | MOLT-4 > 100 µM | Malme-3M > 100 µM | NCI-H226 > 100 µM | NCI-H23 > 100 µM | NCI-H460 > 100 µM | NCI-H522 > 100 µM | NCI/ADR-RES > 100 µM | OVCAR-3 > 100 µM | OVCAR-4 > 100 µM | OVCAR-5 > 100 µM | OVCAR-8 > 100 µM | PC-3 > 100 µM | RPMI-8226 > 100 µM | RXF 393 > 100 µM | SF-268 > 100 µM | SF-295 > 100 µM | SK-MEL-28 > 100 µM | SK-MEL-5 > 100 µM | SK-OV-3 > 100 µM | SN12C > 100 µM | SNB-19 > 100 µM | SNB-75 84.1 µM | SR > 100 µM | SW-620 > 100 µM | T47D > 100 µM | TK-10 > 100 µM | U-251 > 100 µM | UACC-62 > 100 µM | UO-31 > 100 µM
> 100 µM: HCT-15
